According to patent publication US20040072246A1, “System and method for identifying t cell and other epitopes and the like” (priority 2003, published 2004):
Where no end group is shown, it is not given here.

Legend:
Assay type in all cases: cell-based, human
[1] = test system: TCC GP5F11; assay: Proliferative assay of TCC GP5F11 (3H-thymidine incorporation); conditions: FIG. 4; result in words
Method: (§1) The proliferation of TCC in response to PS-SCL or individual peptides was tested by seeding in duplicate 2×10^4 T cells, 5×10^4 irradiated PBMC with or without mixtures from PS-SCL or peptide. Proliferation was measured by [^3H]-thymidine incorporation (Hemmer B. et al., 2000, J Immunol 164:861).

[2] = test system: peripheral blood mononuclear cells; assay: IL-7-modified 7-day primary proliferation assay of peripheral blood mononuclear cells; conditions: number of wells of 10 with positive primary proliferative response, 15 μg/ml peptide
Method: (§2) The proliferation of T-cell clones in response to PS-SCL or individual peptides was tested by seeding in duplicate 2×10^4 T-cells, 5×10^4 irradiated peripheral blood mononuclear cells with or without 200 μg/ml PS-SCL or peptide (Hemmer, B. et al. 1998, J Pept Res 52: 338-345). Proliferation was measured by ^3H-thymidine incorporation (Hemmer, B. et al. 1997, J Exp Med 185: 1651-1659). Experiments were repeated at least twice. HLA restriction was determined by using bare lymphocyte syndrome cells transfected with DR2a (DRB5*0101) or DR2b (DRB1*1501) (provided by G. Nepom, University of Washington, Seattle) (Kovats, S. et al. 1994, J Exp Med 179: 2017-2022). The proliferation of peripheral blood mononuclear cells was measured in an IL-7-modified 7-day primary proliferation assay. Peripheral blood mononuclear cells (1×10^5 per well; 10 wells each and 10 control wells per plate) were seeded with 10 ng/ml IL-7 and 15 μg/ml peptide. Then, 1 μCi ^3H-thymidine/well was added at day 7 for 12 h before radioactivity was measured. Wells were considered positive if the counts per minute exceeded the average background proliferation+3 s.d. (Reece J. C. et al., 1993, Immunol 151: 6175-6184).

[3] = test system: T-cell clone CSF-3; assay: Proliferative assay of T-cell clone CSF-3 (3H-thymidine incorporation); conditions: for Potency EC50: concentration inducing half-maximal proliferation; for Potency max. response / Potency % of Max. response / Potency % of max. response: percentage of highest proliferative response (100% = 28,255 c.p.m. for peptide 77); for EC50: peptide concentration inducing half-maximal proliferation, TCC CSF-3, Table 5
Method: as §1, §2

[4] = test system: TCRζ-chain phosphoisoforms / ZAP-70 in CSF-3 cells; assay: T-cell-receptor signaling (tyrosine phosphorylation of TCR subunits, ZAP-70 immunoprecipitation); conditions: CSF-3 cells stimulated 5 or 10 min
Method: T-cells (1×10^6) were added to peptide-pulsed bare lymphocyte syndrome cells (2×10^6) and, after centrifugation (10 s at 300 g), were incubated at 37° C., washed once with PBS and incubated for 25 min on ice in lysis buffer (1% Nonidet-P40, 10 mM Tris-HCl, pH 7.2, 140 mM NaCl, 2 mM EDTA, 5 mM iodoacetamide, 1 mM Na3VO4 and complete protease inhibitor ‘cocktail’; Boehringer). After nuclear debris were removed, proteins in lysate supernatants were immunoprecipitated by incubation at 4° C. for 12 h with rabbit antibody against ZAP-70 (provided by L. Samelson, National Institute of Child Health and Human Development, National Institutes of Health). Proteins were separated by SDS-PAGE and immunoblotted with 4G10, a mouse monoclonal antibody against phosphotyrosine (Upstate Biotechnology, Lake Placid, N.Y.).

[5] = background 1,306 ± 582 c.p.m., Table 9
[6] = human autoantigenic mimics, Table 9
[7] = background 2,899 ± 1,417 c.p.m., Table 8
[8] = B. burgdorferi peptides, Table 8
[9] = background 2,899 ± 1,417 c.p.m., Table 10

Substance | EC50 [3] | PB PP [2, 7] | Potency EC50 [3, 8] | Potency % of Max. response ([3]; Table 8) | also measured
WMKQNIGRFL [predicted stimulatory peptide with optimal amino acids in each position for TCC GP5F11] |  |  |  |  | proliferative response of TCC GP5F11 (potency) [1]: two orders of magnitude more potent than the target sequence
PIP5 KIII246-255: low-scoring peptide derived from H. sapiens phosphatidylinositol-4-phosphate 5-kinase type III (LDPSEPRTPV; UniProt Q9Y2I7 246-255, looked up, fragment) |  |  |  |  | proliferative response of TCC GP5F11 (potency) [1]: non-stimulatory
GHIKKKRVEA [Peptide 63, GHIKKKRVEA] |  |  |  |  | PB PP [2, 5]: 0; Potency EC50 [3, 6]: 1 to 10 µg/mL; Potency max. response ([3]; Table 9): 56.5%
NNIDKKVYTN [N N I D K K V Y T N, NNIDKKVYTN] | 1 to 10 µg/mL |  |  |  | 
YNIKKIKVED [Peptide 38, YNIKKIKVED] |  | 1 | 0.1 to 1 µg/mL | 62.7% | 
FNIIKSLLGG [52′, FNIIKSLLGG] |  |  |  |  | Potency EC50 ([3]; viral mimic peptides, Table 10): 1 to 10 µg/mL; stimulation (proliferation) of T-cell clone CSF-3 ([3]; result in words): stimulatory
FFIKKRSLII [Peptide 54, FFIKKRSLII] | 1 µg/mL | 5 | 1 to 10 µg/mL | 59.8% | 
PNITFSVVYN [Peptide 74, PNITFSVVYN] |  |  |  |  | PB PP [2, 9]: 0; Potency EC50 ([3]; viral mimic peptides, Table 10): 0.1 to 1 µg/mL; Potency % of max. response ([3]; Table 10): 78.3%
FNIIKVHSSL [Peptide 37, FNIIKVHSSL] |  | 1 | 0.001 to 0.01 µg/mL | 69.3% | 
DNIFKKETLI [D N I F K K E T L I, DNIFKKETLI] | 1 µg/mL |  |  |  | 
LNIKNSKLEI [Peptide 30, LNIKNSKLEI] |  | 0 | <0.001 µg/mL | 64.2% | 
SFIYSVVCLV [Peptide 62, SFIYSVVCLV] |  |  |  |  | PB PP [2, 5]: 9; Potency EC50 [3, 6]: 0.1 to 1 µg/mL; Potency max. response ([3]; Table 9): 75.7%
LNITSSSYLF [Peptide 42, LNITSSSYLF] |  | 0 | 1 to 10 µg/mL | 71.4% | 
QAIGKKTQNN [Peptide 26, QAIGKKTQNN] |  | 3 | <0.001 µg/mL | 80.8% | 
FNITSSIRNK [Peptide 75, FNITSSIRNK] |  |  |  |  | PB PP [2, 9]: 1; Potency EC50 ([3]; viral mimic peptides, Table 10): 1 µg/mL; Potency % of max. response ([3]; Table 10): 63.5%
YNIIVSSLLL [Y N I I V S S L L L, YNIIVSSLLL] | 1 to 10 µg/mL |  |  |  | 

Substance | EC50 [3] | PB PP [2, 7] | Potency EC50 [3, 8] | Potency % of Max. response ([3]; Table 8) | also measured
SNIIKKTSED [Peptide 57, SNIIKKTSED] | 1 µg/mL | 4 | 0.1 to 1 µg/mL | 65.2% | 
SNIKSKLILV [S N I K S K L I L V, SNIKSKLILV] | 1 µg/mL |  |  |  | 
ENVKKSRRLI [Peptide 66, ENVKKSRRLI] |  |  |  |  | PB PP [2, 5]: 0; Potency EC50 [3, 6]: 0.1 to 1 µg/mL; Potency max. response ([3]; Table 9): 64.1%
NNIYKKALIS [Peptide 59, NNIYKKALIS] | 1 µg/mL | 3 | 0.1 to 1 µg/mL | 68.1% | effect on early TCR signaling events (TCRζ-chain p38 phospho-isoforms, recruitment of active ZAP-70) [4]: fall agonist response
RNIFKKTVEN [R N I F K K T V E N, RNIFKKTVEN] | >100 µg/mL |  |  |  | 
TLITKKISAI [Peptide 28, TLITKKISAI] |  | 1 | <0.001 µg/mL | 65.9% | 
DNITSSVLFN [Peptide 71, DNITSSVLFN] |  |  |  |  | PB PP [2, 5]: 5; Potency EC50 [3, 6]: 0.1 to 1 µg/mL; Potency max. response ([3]; Table 9): 60.6%; effect on early TCR signaling events (TCRζ-chain p38 phospho-isoforms, recruitment of active ZAP-70) [4]: fall agonist response
YVKQNTLKLA (listed as Influenza virus) [Flu-HA308-317, influenza virus hemagglutinin decamer, target peptide of TCC GP5F11, reference compound] |  |  |  |  | proliferative response of TCC GP5F11 (potency) [1]: intermediate potency
FNITSSTCEL [Peptide 64, FNITSSTCEL] |  |  |  |  | PB PP [2, 5]: 1; Potency EC50 [3, 6]: 0.1 to 1 µg/mL; Potency max. response ([3]; Table 9): 66.3%
ENIYYSSVRT [Peptide 77, ENIYYSSVRT] |  |  |  |  | PB PP [2, 9]: 3; Potency EC50 ([3]; viral mimic peptides, Table 10): 1 to 10 µg/mL; Potency % of max. response ([3]; Table 10): 100%
LHIISKRVEA [Peptide 61, LHIISKRVEA] |  |  |  |  | PB PP [2, 5]: 0; Potency EC50 [3, 6]: 0.1 to 1 µg/mL; Potency max. response ([3]; Table 9): 70.0%
ENIKKILLRE [Peptide 46, ENIKKILLRE] |  | 3 | 0.1 to 1 µg/mL | 65.1% | 
FNIYKRVVDN [F N I Y K R V V D N, FNIYKRVVDN] | 1 µg/mL |  |  |  | 
SNIIKSLSLF [S N I I K S L S L F, SNIIKSLSLF] | 0.1 to 1 µg/mL |  |  |  | 
NNIKSKVDNA [Peptide 47, NNIKSKVDNA] |  | 0 | 1 to 10 µg/mL | 80.6% | 
